In patent publication US11964973B2 (priority 2019, dated 2024):
Read-outs that look alike come from different tables or passages of the source.

What was measured:
[1] = biological target: human DGKζ (Homo sapiens (Human), UniProt Q13574); experiment: biochemical; type: biochemical; details: liposome (LIPGLO) assay
[2] = test system: Human venous whole blood (IFN-γ); experiment: Human whole blood IFN-γ assay; type: cell-based
Experimental: Assay 10: Human Whole Blood IFN-γ Assay
Human venous whole blood (22.5 μL per well), obtained from healthy donors, was pre-treated with compounds for one hour at 37° C. in a humidified 95% air/5% CO2 incubator. The blood was stimulated with 2.5 μL anti-human CD3 and anti-CD28 mAb at a final concentration of 1 μg/mL each for 24 hours at 37° C. IFN-γ in the supernatants was measured using AlphLISA kit (Cat #AL217).

[3] = biological target: Human DGKα(9-727) (Homo sapiens (Human), UniProt P23743); experiment: biochemical
[4] = test system: human venous whole blood, CD8 positive population (pERK); experiment: DGK human whole blood pERK assay; type: cell-based; details: for IC50: read-out: DGK HWB pERK IC50
Outline: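 Heparinized whole blood from healthy donors preincubated with compound 1 hour at 37° C. Stimulation used anti-CD3 at 1 μg/mL final plus cross-linking goat anti-mouse IgG for 15 minutes. Flow cytometry scored percentage pERK-positive cells among CD8-positive cells.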

[5] = biological target: DGKα (Homo sapiens (Human), UniProt P23743); experiment: biochemical; type: biochemical; details: liposome (LIPGLO) assay; read-out: DGKα LIPGLO IC50
[6] = Homo sapiens, human whole blood IFN-γ, read-out: INFg Whole Blood
[7] = Table A, liposome (LIPGLO) assay, read-out: DGKα
[8] = Homo sapiens, CD8 positive, human whole blood, CD8 positive population, anti-CD3 stimulation, top concentration 20 μM, read-out: DGK HWB (human whole blood pERK)
[9] = liposome (LIPGLO) assay, Table A, read-out: DGKα LIPGLO IC50
[10] = human whole blood IFN-γ, read-out: INFg Whole Blood
[11] = Homo sapiens, 24 h, human whole blood, anti-CD3 plus anti-CD28, 24 hours, read-out: INFg Whole Blood Normalized Agonist EC50
[12] = human whole blood, CD8 positive population

Human DGKα(9-727), sequence (P23743 whole entry, looked up): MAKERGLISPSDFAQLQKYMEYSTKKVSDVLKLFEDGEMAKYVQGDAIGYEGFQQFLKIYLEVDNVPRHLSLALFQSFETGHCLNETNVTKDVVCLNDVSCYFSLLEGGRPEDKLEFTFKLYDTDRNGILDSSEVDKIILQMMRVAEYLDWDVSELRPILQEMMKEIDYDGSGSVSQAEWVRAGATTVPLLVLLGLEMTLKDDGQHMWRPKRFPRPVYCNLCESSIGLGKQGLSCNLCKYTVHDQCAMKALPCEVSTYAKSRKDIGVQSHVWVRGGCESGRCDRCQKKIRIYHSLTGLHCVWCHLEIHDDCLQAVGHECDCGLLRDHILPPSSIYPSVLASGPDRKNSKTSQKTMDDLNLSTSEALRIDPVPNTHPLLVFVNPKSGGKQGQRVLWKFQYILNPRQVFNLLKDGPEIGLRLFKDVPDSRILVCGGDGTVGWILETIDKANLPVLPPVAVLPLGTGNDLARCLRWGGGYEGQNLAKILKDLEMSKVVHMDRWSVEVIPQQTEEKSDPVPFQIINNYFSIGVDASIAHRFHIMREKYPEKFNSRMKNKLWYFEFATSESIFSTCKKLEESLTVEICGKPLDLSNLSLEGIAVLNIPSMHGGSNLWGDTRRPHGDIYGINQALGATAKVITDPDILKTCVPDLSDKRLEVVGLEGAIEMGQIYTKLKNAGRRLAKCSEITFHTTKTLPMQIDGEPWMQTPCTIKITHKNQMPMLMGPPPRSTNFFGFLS
DGKα, sequence (P23743 whole entry, looked up): as above
human DGKζ, sequence (Q13574 whole entry, looked up): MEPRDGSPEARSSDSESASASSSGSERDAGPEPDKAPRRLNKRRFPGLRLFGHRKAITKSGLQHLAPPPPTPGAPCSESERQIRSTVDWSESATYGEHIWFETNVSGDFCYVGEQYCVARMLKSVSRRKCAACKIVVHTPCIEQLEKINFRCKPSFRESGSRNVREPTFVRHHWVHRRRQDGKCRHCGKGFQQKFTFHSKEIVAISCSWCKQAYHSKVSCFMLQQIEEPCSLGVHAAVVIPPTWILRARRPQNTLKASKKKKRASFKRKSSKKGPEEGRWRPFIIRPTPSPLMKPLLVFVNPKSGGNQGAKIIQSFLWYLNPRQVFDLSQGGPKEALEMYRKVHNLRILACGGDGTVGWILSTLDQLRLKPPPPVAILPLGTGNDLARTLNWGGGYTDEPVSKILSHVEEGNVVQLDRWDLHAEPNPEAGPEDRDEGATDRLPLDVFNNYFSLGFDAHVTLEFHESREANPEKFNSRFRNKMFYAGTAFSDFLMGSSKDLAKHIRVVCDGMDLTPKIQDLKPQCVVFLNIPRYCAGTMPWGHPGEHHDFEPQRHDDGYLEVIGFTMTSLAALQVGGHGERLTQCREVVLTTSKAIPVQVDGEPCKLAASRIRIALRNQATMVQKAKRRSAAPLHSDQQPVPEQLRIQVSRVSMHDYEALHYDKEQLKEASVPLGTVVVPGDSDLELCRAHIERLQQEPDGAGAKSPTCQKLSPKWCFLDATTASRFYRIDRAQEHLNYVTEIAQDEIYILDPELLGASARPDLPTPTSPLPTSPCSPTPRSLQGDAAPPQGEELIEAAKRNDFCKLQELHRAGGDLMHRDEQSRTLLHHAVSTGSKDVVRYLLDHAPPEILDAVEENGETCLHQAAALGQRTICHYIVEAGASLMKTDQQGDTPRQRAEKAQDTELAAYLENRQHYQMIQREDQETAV

Structure (SMILES)	IC50 ([1]; Table A, read-out: DGKζ) [µM]	IC50 [3, 7] [µM]	also measured
Cn1c(=O)nc(N2CC[C@@H](Oc3cccc(C(F)(F)F)c3)[C@H](O)C2)c2nc(Cl)ccc21 (racemic) [Example 271, (+/−)-trans-6-chloro-4-(3-hydroxy-4-(3-(trifluoromethyl)phenoxy)piperidin-1-yl)-1-methylpyrido[3,2-d]pyrimidin-2(1H)-one]	28	10	EC50 [2, 6]: 20 µM
CC1CN(c2cc(=O)n(C)c3ccc(C#N)nc23)CCC1N(C)C(=O)c1ccc(F)cc1 (single isomer, unassigned) [Example 285, N-(1-(6-Cyano-1-methyl-2-oxo-1,2-dihydro-1,5-naphthyridin-4-yl)-3-methylpiperidin-4-yl)-4-fluoro-N-methylbenzamide]	130	30	EC50 ([4]; human whole blood pERK, read-out: DGK HWB): 20 µM
CCO[C@H]1CN(c2cc(=O)n(C)c3ccc(C#N)nc23)CC[C@@H]1OCc1ccc(OC(C)C)cn1 [Example 383, 8-((3S,4S)-3-ethoxy-4-((5-isopropoxypyridin-2-yl)methoxy)piperidin-1-yl)-5-methyl-6-oxo-5,6-dihydro-1,5-naphthyridine-2-carbonitrile]	–	–	EC50 [4, 8]: 20 µM; IC50 [3, 9]: 6.1 µM
CO[C@@H]1CN(c2cc(=O)n(C)c3ccc(C#N)nc23)CC[C@H]1Oc1cccc(C(F)(F)F)c1 (single isomer, unassigned) [Example 262, (±)-trans-8-(3-methoxy-4-(3-(trifluoromethyl)phenoxy)piperidin-1-yl)-5-methyl-6-oxo-5,6-dihydro-1,5-naphthyridine-2-carbonitrile]	15	3.7	–
C[C@H]1CN(c2cc(=O)n(C)c3ccc(C#N)nc23)[C@@H](C)CC1N(C)c1ccc(C(F)(F)F)cc1 (single isomer, unassigned) [Example 319]	130	61	–
CO[C@@H]1CN(c2nc(=O)n(C)c3ccc(C#N)nc23)CC[C@H]1Oc1cccc(C(F)(F)F)c1 (single isomer, unassigned) [Example 276]	2	1	–
Cn1c(=O)nc(N2CC[C@@H](Oc3cccc(C(F)(F)F)c3)[C@H](O)C2)c2nc(C#N)ccc21 (single isomer, unassigned) [Example 274, (+/−)-trans-4-(3-hydroxy-4-(3-(trifluoromethyl)phenoxy)piperidin-1-yl)-1-methyl-2-oxo-1,2-dihydropyrido[3,2-d]pyrimidine-6-carbonitrile]	15	14	EC50 [2, 6]: 8.2 µM
CC1CN(c2cc(=O)n(C)c3ccc(C#N)nc23)CCC1N(C)C(=O)c1ccc(F)cc1 (single isomer, unassigned) [Example 287, N-(1-(6-Cyano-1-methyl-2-oxo-1,2-dihydro-1,5-naphthyridin-4-yl)-3-methylpiperidin-4-yl)-4-fluoro-N-methylbenzamide]	7.4	–	IC50 ([3]; read-out: DGKα): 3.2 µM
COc1ccc(NC2C[C@H](C)N(c3cc(=O)n(C)c4ccc(C#N)nc34)C[C@H]2C)nc1 (single isomer, unassigned) [Example 280]	170	0.38	EC50 [2, 10]: 20 µM
CC(C)Oc1ccc(O[C@H]2CCN(c3cc(=O)n(C)c4ccc(C#N)nc34)C[C@@H]2O)nc1 (single isomer, unassigned) [Example 268, (±)-trans-8-(3-hydroxy-4-((5-isopropoxypyridin-2-yl)oxy)piperidin-1-yl)-5-methyl-6-oxo-5,6-dihydro-1,5-naphthyridine-2-carbonitrile]	17	1.3	–
Cn1c(=O)cc(N2CC[C@H](Oc3cccc(C(F)(F)F)c3)[C@@H](O)C2)c2nc(C#N)ccc21 (racemic) [Example 260, (±)-trans-8-(3-hydroxy-4-(3-(trifluoromethyl)phenoxy)piperidin-1-yl)-5-methyl-6-oxo-5,6-dihydro-1,5-naphthyridine-2-carbonitrile]	140	–	IC50 ([3]; read-out: DGKα): 1.9 µM
CO[C@H]1CN(c2cc(=O)n(C)c3ccc(C#N)nc23)CC[C@@H]1Oc1ccc(OC(C)C)cn1 (single isomer, unassigned) [Example 270, (±)-trans-8-(4-((5-isopropoxypyridin-2-yl)oxy)-3-methoxypiperidin-1-yl)-5-methyl-6-oxo-5,6-dihydro-1,5-naphthyridine-2-carbonitrile]	12	2.4	–
CCO[C@H]1CN(c2cc(=O)n(C)c3ccc(C#N)nc23)CC[C@@H]1OCc1ccc(OC(C)C)cn1 (single isomer, unassigned) [Example 384]	–	–	EC50 [4, 8]: 4 µM; IC50 [3, 9]: 0.82 µM
Cn1c(=O)cc(N2CCC(Oc3ccnc(C(F)(F)F)n3)CC2)c2nc(C#N)ccc21 [Example 76, 5-methyl-6-oxo-8-(4-((2-(trifluoromethyl)pyrimidin-4-yl)oxy)piperidin-1-yl)-5,6-dihydro-1,5-naphthyridine-2-carbonitrile]	–	–	IC50 ([1]; read-out: DGKζ LIPGLO IC50): 34 µM; EC50 [2, 11]: 20 µM; IC50 [4, 12]: 20 µM; IC50 [5]: 11 µM
Cc1nccc(OC2CCN(c3cc(=O)n(C)c4ccc(C#N)nc34)CC2)n1 [Example 72, 5-methyl-8-(4-((2-methylpyrimidin-4-yl)oxy)piperidin-1-yl)-6-oxo-5,6-dihydro-1,5-naphthyridine-2-carbonitrile]	–	–	IC50 ([1]; read-out: DGKζ LIPGLO IC50): 39 µM; EC50 [2, 11]: 20 µM; IC50 [4, 12]: 20 µM; IC50 [5]: 4.2 µM
CCO[C@@H]1CN(c2cc(=O)n(C)c3ccc(C#N)nc23)CC[C@H]1Oc1cccc(C(F)(F)F)c1 [Example 264, 8-((3R,4R)-3-ethoxy-4-(3-(trifluoromethyl)phenoxy)piperidin-1-yl)-5-methyl-6-oxo-5,6-dihydro-1,5-naphthyridine-2-carbonitrile]	17	4	EC50 [2, 10]: 6.5 µM
CC[C@@H]1CN(c2cc(=O)n(C)c3ccc(C#N)nc23)CC[C@H]1Oc1cccc(C(C)C)c1 (single isomer, unassigned) [Example 139]	–	–	IC50 ([1]; read-out: DGKζ LIPGLO IC50): 1.7 µM; EC50 ([2]; read-out: INFg Whole Blood Normalized Agonist EC50, human whole blood, anti-CD3 plus anti-CD28, 24 hours): 1.5 µM; IC50 ([4]; Homo sapiens, CD8 positive): 5.3 µM; IC50 [5]: 0.1 µM
Cn1c(=O)nc(N2CC[C@@H](Oc3cccc(C(F)(F)F)c3)[C@H](O)C2)c2nc(Cl)ccc21 (racemic) [Example 272, (+/−)-trans-6-chloro-4-(3-hydroxy-4-(3-(trifluoromethyl)phenoxy)piperidin-1-yl)-1-methylpyrido[3,2-d]pyrimidin-2(1H)-one]	24	19	EC50 [2, 10]: 16 µM
COc1ccc(NC2C[C@H](C)N(c3cc(=O)n(C)c4ccc(C#N)nc34)C[C@H]2C)nc1 (single isomer, unassigned) [Example 281]	2.8	2.7	EC50 [2, 10]: 9.8 µM
C[C@H]1CN(c2cc(=O)n(C)c3ccc(C#N)nc23)[C@@H](C)CC1N(C)c1ccc(C(F)(F)F)cc1 (single isomer, unassigned) [Example 318]	–	130	EC50 ([4]; Homo sapiens, CD8 positive, human whole blood pERK, read-out: DGK HWB): 20 µM
CC(C)Oc1ccc(O[C@H]2CCN(c3cc(=O)n(C)c4ccc(C#N)nc34)C[C@@H]2O)nc1 (single isomer, unassigned) [Example 267, (±)-trans-8-(3-hydroxy-4-((5-isopropoxypyridin-2-yl)oxy)piperidin-1-yl)-5-methyl-6-oxo-5,6-dihydro-1,5-naphthyridine-2-carbonitrile]	10	0.26	EC50 [2, 6]: 17 µM
CO[C@@H]1CN(c2nc(=O)n(C)c3ccc(C#N)nc23)CC[C@H]1Oc1cccc(C(F)(F)F)c1 (single isomer, unassigned) [Example 277]	3.9	4.9	–
Cn1c(=O)cc(N2CC[C@H](Oc3cccc(C(F)(F)F)c3)[C@@H](O)C2)c2nc(C#N)ccc21 (racemic) [Example 259, (±)-trans-8-(3-hydroxy-4-(3-(trifluoromethyl)phenoxy)piperidin-1-yl)-5-methyl-6-oxo-5,6-dihydro-1,5-naphthyridine-2-carbonitrile]	150	1.1	EC50 [2, 6]: 20 µM
CC(C)Oc1ccc(OC2CCN(c3cc(=O)n(C)c4ccc(C#N)nc34)CC2)nc1 [Example 66, 8-(4-((5-isopropoxypyridin-2-yl)oxy)piperidin-1-yl)-5-methyl-6-oxo-5,6-dihydro-1,5-naphthyridine-2-carbonitrile]	–	–	IC50 ([1]; read-out: DGKζ LIPGLO IC50): 4 µM; EC50 [2, 11]: 0.82 µM; IC50 [4, 12]: 2.7 µM; IC50 [5]: 1.2 µM
CC[C@@H]1CN(c2cc(=O)n(C)c3ccc(C#N)nc23)[C@@H](C)C[C@@H]1Oc1cccc(C(F)(F)F)c1 [Example 308, 8-((2S,4S,5R)-5-ethyl-2-methyl-4-(3-(trifluoromethyl)phenoxy)piperidin-1-yl)-5-methyl-6-oxo-5,6-dihydro-1,5-naphthyridine-2-carbonitrile]	3.1	4.3	–
